The text below walks through data of patent US20240156825A1, “USE OF SELECTIVE VEGFR2 AND FGFR1 INHIBITORS” (Fountain Therapeutics Inc., priority 2022, published 2024).

Read-outs that look alike come from different tables or passages of the source.

One assay has as its target VEGFR2 (Homo sapiens, UniProt P35968).
In the next assay the test system is VEGFR2 and FGFR1. In words: Selection of compounds that selectively inhibit both VEGFR2 and FGFR1 (average relative IC50). In kind it is biochemical.
The subject of a further assay is any gene target. The following applies: cited from earlier work.
For a further assay, the target named is FGFR1 (Homo sapiens, UniProt P11362).
The mark [1] stands for this setting: relative IC50: reported IC50 toward VEGFR2 divided by next lowest reported IC50 to any gene target.
Where [2] appears, read: lowest reported IC50 to any gene target, read-out: Min IC50_μM.
Setting [3] is: lowest reported IC50 to any gene target, read-out: min IC50.
Setting [4] is: average of VEGFR2 and FGFR1 relative IC50.
[5] abbreviates: Table 2, lowest reported IC50 to any gene target, read-out: Min IC50_μM.
Setting [6] is: relative IC50: reported IC50 toward FGFR1 divided by next lowest reported IC50 to any gene target.
The mark [7] stands for this setting: next lowest IC50 value to any gene target, read-out: Min IC50_μM.

Chain of VEGFR2 (P35968 20-1356, species assumed): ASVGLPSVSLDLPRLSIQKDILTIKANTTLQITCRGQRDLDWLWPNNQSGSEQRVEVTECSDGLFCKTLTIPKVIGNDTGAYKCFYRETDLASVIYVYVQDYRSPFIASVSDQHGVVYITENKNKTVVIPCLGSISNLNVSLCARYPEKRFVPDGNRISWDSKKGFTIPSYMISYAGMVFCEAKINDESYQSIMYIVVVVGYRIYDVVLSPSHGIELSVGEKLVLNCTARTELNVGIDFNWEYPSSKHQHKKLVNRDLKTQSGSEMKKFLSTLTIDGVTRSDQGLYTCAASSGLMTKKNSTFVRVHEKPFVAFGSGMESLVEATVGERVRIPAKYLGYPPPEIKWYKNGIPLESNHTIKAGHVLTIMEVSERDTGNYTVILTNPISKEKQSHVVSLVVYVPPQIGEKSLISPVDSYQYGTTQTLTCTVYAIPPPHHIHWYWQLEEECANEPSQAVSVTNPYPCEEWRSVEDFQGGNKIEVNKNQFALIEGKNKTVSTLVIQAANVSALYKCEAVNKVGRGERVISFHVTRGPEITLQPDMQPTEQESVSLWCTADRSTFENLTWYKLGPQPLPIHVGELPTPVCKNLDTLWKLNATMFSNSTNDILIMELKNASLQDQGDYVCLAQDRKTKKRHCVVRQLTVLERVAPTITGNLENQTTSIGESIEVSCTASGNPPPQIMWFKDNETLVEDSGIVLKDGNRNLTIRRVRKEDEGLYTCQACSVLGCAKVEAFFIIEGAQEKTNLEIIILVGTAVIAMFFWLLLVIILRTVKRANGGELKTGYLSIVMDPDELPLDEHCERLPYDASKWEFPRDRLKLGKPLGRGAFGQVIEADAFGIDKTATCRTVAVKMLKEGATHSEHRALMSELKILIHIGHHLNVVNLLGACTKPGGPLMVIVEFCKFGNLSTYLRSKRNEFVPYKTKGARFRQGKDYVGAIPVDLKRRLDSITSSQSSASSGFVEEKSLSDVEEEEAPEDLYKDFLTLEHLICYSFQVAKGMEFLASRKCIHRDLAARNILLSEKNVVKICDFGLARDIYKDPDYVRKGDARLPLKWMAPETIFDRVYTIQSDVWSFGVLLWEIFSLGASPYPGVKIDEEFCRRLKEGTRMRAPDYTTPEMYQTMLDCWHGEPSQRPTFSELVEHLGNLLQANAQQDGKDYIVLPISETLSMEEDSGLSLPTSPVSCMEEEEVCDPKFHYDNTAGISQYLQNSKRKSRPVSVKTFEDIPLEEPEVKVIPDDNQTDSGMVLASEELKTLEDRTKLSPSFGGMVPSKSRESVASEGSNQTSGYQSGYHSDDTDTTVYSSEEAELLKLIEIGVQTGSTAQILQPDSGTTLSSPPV
Chain of FGFR1 (P11362 22-822, species assumed): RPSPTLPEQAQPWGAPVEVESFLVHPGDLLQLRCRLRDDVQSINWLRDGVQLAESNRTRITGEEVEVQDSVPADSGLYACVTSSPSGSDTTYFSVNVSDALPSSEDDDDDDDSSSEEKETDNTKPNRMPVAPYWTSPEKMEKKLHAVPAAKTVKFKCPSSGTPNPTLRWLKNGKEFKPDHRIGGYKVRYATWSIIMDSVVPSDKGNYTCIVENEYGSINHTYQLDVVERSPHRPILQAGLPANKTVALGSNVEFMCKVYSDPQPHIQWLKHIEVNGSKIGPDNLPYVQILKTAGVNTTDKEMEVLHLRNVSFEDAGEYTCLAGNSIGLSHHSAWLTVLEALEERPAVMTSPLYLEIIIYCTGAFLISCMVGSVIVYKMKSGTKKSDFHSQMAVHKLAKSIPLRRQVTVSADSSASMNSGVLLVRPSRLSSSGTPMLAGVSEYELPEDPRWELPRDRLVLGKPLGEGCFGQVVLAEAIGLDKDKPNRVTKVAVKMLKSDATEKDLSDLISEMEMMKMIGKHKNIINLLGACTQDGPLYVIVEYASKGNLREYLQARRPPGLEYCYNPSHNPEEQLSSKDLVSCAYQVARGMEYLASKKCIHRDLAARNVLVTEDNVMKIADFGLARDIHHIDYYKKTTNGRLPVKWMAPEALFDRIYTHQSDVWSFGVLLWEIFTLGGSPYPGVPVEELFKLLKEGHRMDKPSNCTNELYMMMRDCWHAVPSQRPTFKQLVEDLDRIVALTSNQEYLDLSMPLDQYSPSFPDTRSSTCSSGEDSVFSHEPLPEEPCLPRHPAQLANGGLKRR

Regarding `Oc1ccc(C[C@@]2(O)COc3c(ccc(O)c3O)[C@H]2O)cc1O` [compound 24949852, Epihematoxylol], the “VEGFR2, rIC50” value at VEGFR2 (setting [1]) was 5.8. Besides, the “avg rIC50” value with VEGFR2 and FGFR1 is reported as 3.7.

With `COc1cc(OC)cc(-c2cc3cnc(NCCCCCN4CCN(C)CC4)cc3nc2NC(=O)NC(C)(C)C)c1` [compound 5330135, 1,6-Naphthyridine 25, reference compound], the IC50 in the assay on any gene target (setting [2]) and with any gene target (setting [3]) was 3 nM throughout. The “avg rIC50” value in the assay on VEGFR2 and FGFR1 (setting [4]) was 1.8.

Regarding `C[C@@H](Oc1ccc2[nH]nc(-c3nc4cc(N5CCN(C)CC5)ccc4[nH]3)c2c1)c1c(Cl)cncc1Cl` [compound 136211077, 5-[(R)-1-(3,5-Dichloropyridine-4-yl)ethoxy]-3-[5-(4-methylpiperazine-1-yl)-1H-benzoimidazole-2-yl]-1H-indazole], the IC50 with any gene target (setting [5]) is 2 nM; in the assay with any gene target (setting [3]) it was 1 nM. Further, at FGFR1 (setting [6]), the “FGFR1, rIC50” value is recorded as 0.4. Also, the “VEGFR2, rIC50” value on VEGFR2 (setting [1]) is on record as 8.3. The “avg rIC50” value in the assay on VEGFR2 and FGFR1 (setting [4]) stood at 4.4.

`COC(=O)c1ccc2c(C(=Nc3ccc(CN(C)C(=O)N(C)C)cc3)c3ccccc3)c(O)[nH]c2c1` [compound 135837837, Methyl 3-[N-[4-[[dimethylcarbamoyl(methyl)amino]methyl]phenyl]-C-phenylcarbonimidoyl]-2-hydroxy-1H-indole-6-carboxylate]: the IC50 with any gene target (setting [3]) is 10 nM. In addition, the “FGFR1, rIC50” value on FGFR1 (setting [6]) is 5.0. Further, the “VEGFR2, rIC50” value at VEGFR2 (setting [1]) stood at 6.1. Also, the “avg rIC50” value in the assay with VEGFR2 and FGFR1 (setting [4]) is 5.6.

As to `Cc1nnc(-c2cn3ncnc(Nc4cnc5[nH]ccc5c4)c3c2C(C)C)o1` [compound 44449577, 6-(5-Methyl-1,3,4-oxadiazol-2-yl)-5-propan-2-yl-N-(1H-pyrrolo[2,3-b]pyridin-5-yl)pyrrolo[2,1-f][1,2,4]triazin-4-amine], the IC50 in the assay with any gene target (read-out: Min IC50_μM) and in the assay on any gene target (read-out: min IC50) was 61 nM throughout. In addition, the “FGFR1, rIC50” value at FGFR1 is 2.0. For the same compound, on VEGFR2 (setting [1]), the “VEGFR2, rIC50” value worked out at 0.5. The “avg rIC50” value in the assay on VEGFR2 and FGFR1 worked out at 1.2.

Consider `CCS(=O)(=O)c1ccc2c(c1)C(=Cc1[nH]c3c(c1CN1CCOCC1)CCCC3)C(=O)N2` [compound 44299203, 3-[3-(Morpholinomethyl)-4,5,6,7-tetrahydro-1H-indole-2-ylmethylene]-5-(ethylsulfonyl)-2,3-dihydro-1H-indole-2-one], for which the IC50 in the assay with any gene target (setting [3]) was 70 nM. In addition, at FGFR1 (setting [6]), the “FGFR1, rIC50” value is recorded as 5.7. The “VEGFR2, rIC50” value on VEGFR2 (setting [1]) is recorded as 1.4. Also, in the assay with VEGFR2 and FGFR1 (setting [4]), the “avg rIC50” value was 3.6.

Take `COc1cc2c(cc1F)C(c1ccccc1Cl)=NC1=C(C)NNC1=N2` [compound 135398512, 5-(2-Chlorophenyl)-7-fluoro-1,2-dihydro-8-methoxy-3-methylpyrazolo(3,4-b)(1,4)benzodiazepine]: the IC50 with any gene target (read-out: Min IC50_μM) and in the assay with any gene target (read-out: min IC50) was 24 nM each time. Also, the “FGFR1, rIC50” value on FGFR1 was 2.8. In addition, on VEGFR2, the “VEGFR2, rIC50” value is recorded as 0.4. In addition, the “avg rIC50” value with VEGFR2 and FGFR1 (setting [4]) is on record as 1.6.

In the case of `Cc1cc2cc(Nc3ncnn4cc(-c5nnc(C)o5)c(C(C)C)c34)cnc2[nH]1` [compound 22273644, 5-Isopropyl-6-(5-methyl-1,3,4-oxadiazol-2-yl)-N-(2-methyl-1H-pyrrolo[2,3-b]pyridin-5-yl)pyrrolo[2,1-f][1,2,4]triazin-4-amine], the IC50 was 25 nM in the assay with any gene target (setting [3]) and 53 nM in the assay with any gene target (setting [7]). Further, at FGFR1 (setting [6]), the “FGFR1, rIC50” value came to 3.1. The “VEGFR2, rIC50” value on VEGFR2 (setting [1]) stood at 0.5. Also, the “avg rIC50” value with VEGFR2 and FGFR1 (setting [4]) is given as 1.8.

As to Chembl4573547 [compound 155563388], the IC50 with any gene target (setting [3]) is 150 nM. At FGFR1 (setting [6]), the “FGFR1, rIC50” value is 1.9. Besides, at VEGFR2 (setting [1]), the “VEGFR2, rIC50” value is 1.1. The “avg rIC50” value in the assay on VEGFR2 and FGFR1 (setting [4]) turned out to be 1.5.

Take `COc1cc(OC)cc(-c2cc3cnc(NCCCCN4CCN(C)CC4)cc3nc2NC(=O)NC(C)(C)C)c1` [compound 5330130, reference compound]: the IC50 in the assay with any gene target (setting [2]) was 0.4 nM. The “avg rIC50” value in the assay on VEGFR2 and FGFR1 (setting [4]) came to 4.3.

In the case of `COc1ccc(N2Cc3cnc(Nc4ccc(F)cc4)nc3N([C@@H]3CC[C@@H](O)C3)C2=O)cc1` [compound 11396738, 7-(4-Fluoroanilino)-1-[(1R,3R)-3-hydroxycyclopentyl]-3-(4-methoxyphenyl)-4H-pyrimido[4,5-d]pyrimidin-2-one, reference compound], the IC50 in the assay on any gene target (read-out: Min IC50_μM) and in the assay on any gene target (read-out: min IC50) was 83 nM throughout. On VEGFR2 (setting [1]), the “VEGFR2, rIC50” value was 0.6. Besides, in the assay on VEGFR2 and FGFR1, the “avg rIC50” value is reported as 1.2.

As to `NC(=O)c1c(OCc2c(F)cc(Br)cc2F)nsc1NC(=O)NCCCCN1CCCC1` [compound 9811611, 3-((4-Bromo-2,6-difluorobenzyl)oxy)-5-(3-(4-(pyrrolidin-1-yl)butyl)ureido)isothiazole-4-carboxamide], the figures for the IC50 with any gene target (setting [3]) and in the assay on any gene target (setting [7]) were 1 nM and 3.08 nM, respectively. Moreover, at FGFR1 (setting [6]), the “FGFR1, rIC50” value is on record as 6.7. Besides, the “VEGFR2, rIC50” value on VEGFR2 (setting [1]) worked out at 0.4. The “avg rIC50” value with VEGFR2 and FGFR1 (setting [4]) is given as 3.6.

On to `Oc1cc2c(cc1O)C1c3ccc(O)c(O)c3OCC1(O)C2` (stereo not drawn) [compound 442514, Haematoxylin], for which, on VEGFR2 (setting [1]), the “VEGFR2, rIC50” value amounted to 9.5. In addition, in the assay on VEGFR2 and FGFR1, the “avg rIC50” value stood at 5.5.

As for `COc1ccc(N2Cc3cnc(Nc4ccccc4)nc3N([C@@H]3CC[C@@H](O)C3)C2=O)cc1` [compound 9910609, (+)-(1R,3R)-1-(3-Hydroxy-cyclopentyl)-3-(4-methoxy-phenyl)-7-phenylamino-3,4-dihydro-1H-pyrimido[4,5-d]pyrimidin-2-one], the IC50 in the assay on any gene target (setting [3]) and in the assay on any gene target (setting [7]) was 28 nM in each case. In addition, the “FGFR1, rIC50” value at FGFR1 (setting [6]) is listed as 2.4. In addition, the “VEGFR2, rIC50” value on VEGFR2 (setting [1]) amounted to 0.4. In addition, the “avg rIC50” value with VEGFR2 and FGFR1 (setting [4]) amounted to 1.4.

Take `CONC(=O)c1cc(Nc2ncnn3cc(-c4nnc(C(F)(F)S(C)(=O)=O)o4)c(C(C)C)c23)c(F)cc1F` [compound 11432911, 5-{6-[5-(Difluoro-methanesulfonyl-methyl)-[1,3,4]oxadiazol-2-yl]-5-isopropyl-pyrrolo[2,1-f][1,2,4]triazin-4-ylamino}-2,4-difluoro-N-methoxy-benzamide]: the “FGFR1, rIC50” value at FGFR1 (setting [6]) stood at 4.8. The “VEGFR2, rIC50” value at VEGFR2 (setting [1]) is listed as 1.0. Further, the “avg rIC50” value in the assay with VEGFR2 and FGFR1 (setting [4]) is 2.9.

With `COc1cc(OC)cc(-c2cc3cnc(NCCCN4CCOCC4)cc3nc2NC(=O)NC(C)(C)C)c1` [compound 5329004, 1,6-Naphthyridine deriv. 20, reference compound], the “avg rIC50” value in the assay with VEGFR2 and FGFR1 (setting [4]) is given as 5.0.

On to `CCN1CCC(Nc2ccc3c(c2)/C(=C(\c2cccc(F)c2)c2nc(C)c[nH]2)C(=O)N3)CC1` [compound 67163677, XL999; XL-999; XL 999, reference compound], for which, in the assay on any gene target (setting [3]), the IC50 is 2 nM. In the assay with VEGFR2 and FGFR1 (setting [4]), the “avg rIC50” value is reported as 2.0.

Take `CNC(=O)c1cc(F)cc(N(CCNC(C)C)c2ccc3ncc(-c4cnn(C)c4)nc3c2)c1` [compound 68209105, reference compound]: the IC50 in the assay with any gene target (setting [5]) was 3.16 nM; in the assay on any gene target (setting [3]), 2 nM. The “avg rIC50” value with VEGFR2 and FGFR1 (setting [4]) came to 2.8.

As for `COc1cc(OC)cc(-c2cc3cnc(NCCCO)cc3nc2NC(=O)NC(C)(C)C)c1` [compound 5330157, 1,6-Naphthyridine 75, reference compound], the “avg rIC50” value in the assay with VEGFR2 and FGFR1 (setting [4]) was determined as 1.4.

For the compound `COc1cc(OC)cc(-c2cc3cnc(NCCCN4CCN(C)CC4)cc3nc2NC(=O)NC(C)(C)C)c1` [compound 5330127, 1,6-Naphthyridine 17, reference compound], the “avg rIC50” value in the assay with VEGFR2 and FGFR1 (setting [4]) amounted to 3.0.

With `COC(=O)c1ccc2c(c1)NC(=O)/C2=C(\Nc1ccc(N(C)C(=O)CN2CCN(C)CC2)cc1)c1ccccc1` [compound 135476717, Nintedanib esylate], the IC50 in the assay on any gene target (setting [3]) was 13 nM. Also, on VEGFR2 (setting [1]), the “VEGFR2, rIC50” value is on record as 1.6. For the same compound, the “avg rIC50” value in the assay with VEGFR2 and FGFR1 is recorded as 3.5.

Regarding `O=C1c2ccc(O)c(O)c2OC[C@]1(O)Cc1ccc(O)c(O)c1` [compound 44578561, Hematoxylone], the “FGFR1, rIC50” value on FGFR1 (setting [6]) was found to be 3.4. On VEGFR2 (setting [1]), the “VEGFR2, rIC50” value is on record as 7.2. Moreover, in the assay with VEGFR2 and FGFR1 (setting [4]), the “avg rIC50” value is recorded as 5.3.

As for `CCN(CC)CCCNc1cc2nc(NC(=O)NC(C)(C)C)c(-c3cc(OC)cc(OC)c3)cc2cn1` [compound 5330128, 1,6-Naphthyridine 18, reference compound], the “avg rIC50” value in the assay on VEGFR2 and FGFR1 (setting [4]) is 4.3.

Turning to `CCNC(=O)Nc1nc2nc(NCCCN3CCN(C)CC3)ncc2cc1-c1cc(OC)cc(OC)c1` [compound 5330166, Pyrido[2,3-d]pyrimidine 102, reference compound], the “avg rIC50” value in the assay with VEGFR2 and FGFR1 (setting [4]) is 2.6.

As to `CN(C)CCCc1cccc(Nc2ncc3c(n2)-c2ccc(Cl)cc2NC(=S)C3)c1` [compound 56945277, 9-Chloro-2-[3-[3-(dimethylamino)propyl]anilino]-5,7-dihydropyrimido[5,4-d][1]benzazepine-6-thione], on FGFR1 (setting [6]), the “FGFR1, rIC50” value is reported as 2.4.

As to `COC(=O)c1ccc2c(c1)NC(=O)/C2=C(\Nc1ccc(CN2CCCCC2)cc1)c1ccccc1` [compound 135476706, Methyl (3Z)-2-oxo-3-[phenyl-[4-(piperidin-1-ylmethyl)anilino]methylidene]-1H-indole-6-carboxylate], in the assay with any gene target (read-out: min IC50), the IC50 was 32 nM. In addition, the “VEGFR2, rIC50” value on VEGFR2 (setting [1]) was determined as 1.1. Moreover, the “avg rIC50” value with VEGFR2 and FGFR1 was 1.7.

With `CONC(=O)c1cc(Nc2ncnn3cc(-c4nnc(C(F)F)o4)c(C(C)C)c23)c(F)cc1F` [compound 10073832, 5-[6-(5-Difluoromethyl-[1,3,4]oxadiazol-2-yl)-5-isopropyl-pyrrolo[2,1-f][1,2,4]triazin-4-ylamino]-2,4-difluoro-N-methoxy-benzamide], the “FGFR1, rIC50” value at FGFR1 (setting [6]) is reported as 1.2. For the same compound, on VEGFR2 (setting [1]), the “VEGFR2, rIC50” value amounted to 1.0. Besides, the “avg rIC50” value in the assay with VEGFR2 and FGFR1 (setting [4]) is reported as 1.1.
